In general, EC50 refers to the concentration needed to bring the measured effect to its halfway point.

Each structure is given as a SMILES string.

In one assay the target is T1, Gal4-RORγ-LBD (Homo sapiens, UniProt P51449).
T1 construct: expressed in transfected cells
T1 sequence (P51449 269-508 limits assumed): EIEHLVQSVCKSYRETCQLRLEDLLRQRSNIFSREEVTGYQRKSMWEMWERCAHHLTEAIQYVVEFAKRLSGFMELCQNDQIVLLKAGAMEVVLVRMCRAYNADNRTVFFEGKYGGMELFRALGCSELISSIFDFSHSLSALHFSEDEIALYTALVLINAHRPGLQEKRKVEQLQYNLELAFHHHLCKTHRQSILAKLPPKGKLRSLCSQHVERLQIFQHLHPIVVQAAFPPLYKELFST
Kind of assay: Gal4-RORγ Luciferase Reporter Assay in HEK-293T Cells. Format: cell-based. As to conditions: HEK-293 cells, luciferase reporter, with ursolic acid. In short, it runs like this: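 HEK-293 cells were co-transfected with Gal4-RORγ-LBD and a Gal4-luciferase reporter, then exposed overnight at 37 °C to compounds with […] ursolic acid present (0.2% DMSO). Luminescence was read with One-Glo after 10 min at RT, untreated signal was set as 100, and Max Response was taken as the upper plateau of a 4-parameter logistic fit.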
A general note: A reporter such as luciferase makes a cellular process visible.

The target in a further assay is T2, RORγ-LBD (Homo sapiens, UniProt P51449).
T2 construct: made in house; host or cells: SF9 cells (baculovirus); used as diluted lysate
T2 sequence (P51449 269-508 limits assumed): T1 sequence (P51449 269-508 limits assumed)
Kind of assay: RORγ-Ligand Binding Domain (LBD) TR-FRET Assay. Format: biochemical. The following applies: RORγ-LBD TR-FRET. In short, it runs like this:
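His-tagged RORγ-LBD from SF9 baculovirus lysate, ~3 nM final, in 50 mM Tris pH 7.0, 50 mM KCl, 1 mM EDTA, 0.1 mM DTT, 0.01% BSA. Biotinylated SRC1 LXXLL peptide at 200 nM final with 2 μM ursolic acid; TR-FRET read-out, 1% DMSO final.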
A general note: In TR-FRET formats the signal depends on donor and acceptor labels being close together.

For `CCc1nc(S(=O)(=O)N2C[C@H](CCC(=O)O)Oc3ccc(/C=C/c4c(F)cccc4Cl)cc32)c[nH]1` [Example 89DW, (S,E)-3-(6-(2-chloro-6-fluorostyryl)-4-((2-ethyl-1H-imidazol-4-yl)sulfonyl)-3,4-dihydro-2H-benzo[b][1,4]-oxazin-2-yl)propanoic acid], the EC50 on Gal4-RORγ-LBD and on RORγ-LBD was above 10000 nM in each case.

With `Cc1nn(C)c2ncc(S(=O)(=O)N3C[C@H](CCC(=O)O)Oc4ccc(/C=C/c5c(F)cccc5Cl)cc43)cc12` [Example 89DX, (S,E)-3-(6-(2-chloro-6-fluorostyryl)-4-((1,3-dimethyl-1H-pyrazolo[3,4-b]pyridin-5-yl)sulfonyl)-3,4-dihydro-2H-benzo[b][1,4]oxazin-2-yl)propanoic acid], the EC50 was above 10000 nM at Gal4-RORγ-LBD and 500 to 5000 nM at RORγ-LBD.

For the compound `CC(C)n1cnc(S(=O)(=O)N2C[C@H](CCC(=O)O)Oc3ccc(/C=C/c4c(F)cccc4Cl)cc32)c1` [Example 89DY, (S,E)-3-(6-(2-chloro-6-fluorostyryl)-4-((1-isopropyl-1H-imidazol-4-yl)sulfonyl)-3,4-dihydro-2H-benzo[b][1,4]-oxazin-2-yl)propanoic acid], the EC50 is 500 to 5000 nM at Gal4-RORγ-LBD and below 500 nM at RORγ-LBD.

Regarding `Cn1cnc(S(=O)(=O)N2C[C@H](CCC(=O)O)Oc3ccc(/C=C/c4c(F)cccc4Cl)cc32)c1Cl` [Example 89DZ, (S,E)-3-(4-((5-chloro-1-methyl-1H-imidazol-4-yl)sulfonyl)-6-(2-chloro-6-fluorostyryl)-3,4-dihydro-2H-benzo[b][1,4]-oxazin-2-yl)propanoic acid], the concentration for a half-maximal effect (EC50) was above 10000 nM on Gal4-RORγ-LBD and 500 to 5000 nM on RORγ-LBD.

Take `CCOc1nn(CC)cc1S(=O)(=O)N1C[C@H](CCC(=O)O)Oc2ccc(/C=C/c3ccccn3)cc21` [Example 89E, (S,E)-3-(4-((3-ethoxy-1-ethyl-1H-pyrazol-4-yl)sulfonyl)-6-(2-(pyridin-2-yl)vinyl)-3,4-dihydro-2H-benzo[b][1,4]oxazin-2-yl)propanoic acid]: the EC50 at Gal4-RORγ-LBD and at RORγ-LBD was above 10000 nM each time.

For `CCn1cc(S(=O)(=O)N2C[C@H](CCC(=O)O)Oc3ccc(/C=C/c4c(Cl)cccc4C(F)(F)F)cc32)c(OCCO)n1` [Example 89EA, (S,E)-3-(6-(2-chloro-6-(trifluoromethyl)styryl)-4-((1-ethyl-3-(2-hydroxyethoxy)-1H-pyrazol-4-yl)sulfonyl)-3,4-dihydro-2H-benzo[b][1,4]oxazin-2-yl)propanoic acid], the EC50 on Gal4-RORγ-LBD and at RORγ-LBD was below 500 nM each time.

Consider `COC(=O)CC[C@H]1CN(S(=O)(=O)c2cc(C(F)(F)F)cnc2OCCO)c2cc(/C=C/c3c(F)cccc3Cl)ccc2O1` [Example 89EB, methyl (S,E)-3-(6-(2-chloro-6-fluorostyryl)-4-((2-(2-hydroxyethoxy)-5-(trifluoromethyl)-pyridin-3-yl)sulfonyl)-3,4-dihydro-2H-benzo[b][1,4]oxazin-2-yl)propanoate], for which the concentration for a half-maximal effect (EC50) at Gal4-RORγ-LBD and at RORγ-LBD was below 500 nM in each case.

Regarding `O=C(O)CC[C@H]1CN(S(=O)(=O)c2cc(C(F)(F)F)cnc2OCCO)c2cc(/C=C/c3c(F)cccc3Cl)ccc2O1` [Example 89EC, (S,E)-3-(6-(2-chloro-6-fluorostyryl)-4-((2-(2-hydroxyethoxy)-5-(trifluoromethyl)-pyridin-3-yl)sulfonyl)-3,4-dihydro-2H-benzo[b][1,4]oxazin-2-yl)propanoic acid], the EC50 was 500 to 5000 nM on Gal4-RORγ-LBD and below 500 nM on RORγ-LBD.

Regarding `CC(C)n1cc(S(=O)(=O)N2C[C@H](CCC(=O)O)Oc3ccc(/C=C/c4c(Cl)cccc4C(F)(F)F)cc32)c(OCCO)n1` [Example 89ED, (S,E)-3-(6-(2-chloro-6-(trifluoromethyl)styryl)-4-((3-(2-hydroxyethoxy)-1-isopropyl-1H-pyrazol-4-yl)sulfonyl)-3,4-dihydro-2H-benzo[b][1,4]oxazin-2-yl)propanoic acid], the EC50 on Gal4-RORγ-LBD and at RORγ-LBD was below 500 nM throughout.

In the case of `CCOc1nn(CC)cc1S(=O)(=O)N1C[C@H](CCC(=O)O)Oc2ccc(/C=C/c3ncccc3Cl)cc21` [Example 89EE, (S,E)-3-(6-(2-(3-chloropyridin-2-yl)vinyl)-4-((3-ethoxy-1-ethyl-1H-pyrazol-4-yl)sulfonyl)-3,4-dihydro-2H-benzo[b][1,4]oxazin-2-yl)propanoic acid], the values for the EC50 at Gal4-RORγ-LBD and on RORγ-LBD were 500 to 5000 nM and below 500 nM, respectively.

In the case of `O=C(O)CC[C@H]1CN(S(=O)(=O)c2cn(CC(F)F)nc2OCCO)c2cc(/C=C/c3c(Cl)cccc3C(F)(F)F)ccc2O1` [Example 89EF, (S,E)-3-(6-(2-chloro-6-(trifluoromethyl)styryl)-4-((1-(2,2-difluoroethyl)-3-(2-hydroxyethoxy)-1H-pyrazol-4-yl)sulfonyl)-3,4-dihydro-2H-benzo[b][1,4]oxazin-2-yl)propanoic acid], the 50% effective concentration (EC50) on Gal4-RORγ-LBD and on RORγ-LBD was below 500 nM throughout.

For `O=C(O)CC[C@H]1CN(S(=O)(=O)c2cn(C3CC3)nc2OCCO)c2cc(/C=C/c3c(Cl)cccc3C(F)(F)F)ccc2O1` [Example 89EG, (S,E)-3-(6-(2-chloro-6-(trifluoromethyl)styryl)-4-((1-cyclopropyl-3-(2-hydroxyethoxy)-1H-pyrazol-4-yl)sulfonyl)-3,4-dihydro-2H-benzo[b][1,4]oxazin-2-yl)propanoic acid], the EC50 at Gal4-RORγ-LBD was 500 to 5000 nM; on RORγ-LBD it was below 500 nM.

Consider `CCOc1nn(CC)cc1S(=O)(=O)N1C[C@H](CCC(=O)O)Oc2ccc(/C=C/c3c(Cl)cccc3C(F)F)cc21` [Example 89EH, (S,E)-3-(6-(2-chloro-6-(difluoromethyl)styryl)-4-((3-ethoxy-1-ethyl-1H-pyrazol-4-yl)sulfonyl)-3,4-dihydro-2H-benzo[b][1,4]oxazin-2-yl)propanoic acid], for which the EC50 at Gal4-RORγ-LBD and on RORγ-LBD was below 500 nM throughout.

On to `CCOc1nn(CC)cc1S(=O)(=O)N1C[C@H](CCC(=O)OC)Oc2ccc(/C=C/c3c(Cl)cccc3C(F)F)cc21` [Example 89EI, methyl (S,E)-3-(6-(2-chloro-6-(difluoromethyl)styryl)-4-((3-ethoxy-1-ethyl-1H-pyrazol-4-yl)sulfonyl)-3,4-dihydro-2H-benzo[b][1,4]oxazin-2-yl)propanoate], for which the EC50 at Gal4-RORγ-LBD and at RORγ-LBD was below 500 nM each time.

Consider `CCOc1ncc(C(F)(F)F)cc1S(=O)(=O)N1C[C@H](CCC(=O)O)Oc2ccc(/C=C/c3c(Cl)cccc3C(F)F)cc21` [Example 89EJ, (S,E)-3-(6-(2-chloro-6-(difluoromethyl)styryl)-4-((2-ethoxy-5-(trifluoromethyl)-pyridin-3-yl)sulfonyl)-3,4-dihydro-2H-benzo[b][1,4]-oxazin-2-yl)propanoic acid], for which the EC50 on Gal4-RORγ-LBD and on RORγ-LBD was below 500 nM throughout.

Regarding `CCOc1ncc(C(F)(F)F)cc1S(=O)(=O)N1C[C@H](CCC(=O)OC)Oc2ccc(/C=C/c3c(Cl)cccc3C(F)F)cc21` [Example 89EK, methyl (S,E)-3-(6-(2-chloro-6-(difluoromethyl)styryl)-4-((2-ethoxy-5-(trifluoromethyl)-pyridin-3-yl)sulfonyl)-3,4-dihydro-2H-benzo[b][1,4]-oxazin-2-yl)propanoate], the EC50 on Gal4-RORγ-LBD is 500 to 5000 nM; on RORγ-LBD, below 500 nM.

Consider `COC(=O)CC[C@H]1CN(S(=O)(=O)c2cc(C(F)(F)F)cnc2OCCO)c2cc(/C=C/c3c(Cl)cccc3C(F)F)ccc2O1` [Example 89EL, methyl (S,E)-3-(6-(2-chloro-6-(difluoromethyl)styryl)-4-((2-(2-hydroxyethoxy)-5-(trifluoromethyl)pyridin-3-yl)sulfonyl)-3,4-dihydro-2H-benzo[b][1,4]oxazin-2-yl)propanoate], for which the EC50 on Gal4-RORγ-LBD and on RORγ-LBD was below 500 nM throughout.

Take `O=C(O)CC[C@H]1CN(S(=O)(=O)c2cc(C(F)(F)F)cnc2OCCO)c2cc(/C=C/c3c(Cl)cccc3C(F)F)ccc2O1` [Example 89EM, (S,E)-3-(6-(2-chloro-6-(difluoromethyl)styryl)-4-((2-(2-hydroxyethoxy)-5-(trifluoromethyl)pyridin-3-yl)sulfonyl)-3,4-dihydro-2H-benzo[b][1,4]oxazin-2-yl)propanoic acid]: the half-maximal effective concentration (EC50) on Gal4-RORγ-LBD and at RORγ-LBD was below 500 nM in each case.

`O=C(O)CC[C@H]1CN(S(=O)(=O)c2cccc(C(F)(F)F)c2)c2cc(/C=C/c3c(Cl)cccc3C(F)F)ccc2O1` [Example 89EN, (S,E)-3-(6-(2-chloro-6-(difluoromethyl)styryl)-4-((3-(trifluoromethyl)phenyl)sulfonyl)-3,4-dihydro-2H-benzo[b][1,4]oxazin-2-yl)propanoic acid]: the concentration giving a half-maximal response (EC50) at Gal4-RORγ-LBD and at RORγ-LBD was below 500 nM in each case.

Turning to `O=C(O)CC[C@H]1CN(S(=O)(=O)c2cccc(C(F)F)c2)c2cc(/C=C/c3c(Cl)cccc3C(F)F)ccc2O1` [Example 89EP, (S,E)-3-(6-(2-chloro-6-(difluoromethyl)styryl)-4-((3-(difluoromethyl)phenyl)-sulfonyl)-3,4-dihydro-2H-benzo[b][1,4]oxazin-2-yl)propanoic acid], the concentration for a half-maximal effect (EC50) on Gal4-RORγ-LBD and on RORγ-LBD was below 500 nM each time.

Source of the values: patent US9896441B2 (Lycera Corporation, priority 2014, dated 2018).
